This note sets out measurements from EPA's aquatic toxicity sets.

The subject of one data set is Daphnia magna. Nature of the data set: 48 h LC50 (-log10 mol/L); higher = more toxic.
The subject of the next data set is Pimephales promelas. Nature of the data set: 96 h LC50 (-log10 mol/L); higher = more toxic.
Another data set relates to Tetrahymena pyriformis. Nature of the data set: 48 h IGC50 (-log10 mol/L); higher = more toxic.

For `Nc1c(Cl)c(Cl)nc(C(=O)O)c1Cl`, in the data set on Daphnia magna, the “48 h LC50 (-log10 mol/L)” value came to 3.64. Besides, the “96 h LC50 (-log10 mol/L)” value in the data set on Pimephales promelas came to 3.64.
As for `CCOP(=S)(OCC)Oc1cc(C)nc(C(C)C)n1`, in the data set on Daphnia magna, the “48 h LC50 (-log10 mol/L)” value is 8.56. For the same compound, in the data set on Pimephales promelas, the “96 h LC50 (-log10 mol/L)” value is 4.81.
For `Clc1ccc(C(c2ccc(Cl)cc2)C(Cl)(Cl)Cl)cc1`, in that order: 8.27 and 7.27.
With `COP(=S)(OC)Oc1ccc([N+](=O)[O-])c(C)c1`, in the data set on Daphnia magna, the “48 h LC50 (-log10 mol/L)” value stood at 7.67. The “96 h LC50 (-log10 mol/L)” value in the data set on Pimephales promelas was 4.81.
For `CCCN(CCC)c1c([N+](=O)[O-])cc(C(F)(F)F)cc1[N+](=O)[O-]`, in that order: 6.24 and 6.5.
As for `Oc1ccc(-c2ccccc2)cc1`, in the data set with Daphnia magna, the “48 h LC50 (-log10 mol/L)” value was 4.67. In the data set on Tetrahymena pyriformis, the “48 h IGC50 (-log10 mol/L)” value is 4.39.
In the case of `S=C=Nc1ccc(N=C=S)cc1`, the “48 h LC50 (-log10 mol/L)” value in the data set with Daphnia magna turned out to be 6.4. Further, the “48 h IGC50 (-log10 mol/L)” value with Tetrahymena pyriformis was determined as 6.35.
Consider `CCNc1nc(Cl)nc(NC(C)C)n1`, for which, in the data set with Daphnia magna, the “48 h LC50 (-log10 mol/L)” value was determined as 3.6. The “96 h LC50 (-log10 mol/L)” value with Pimephales promelas was found to be 4.16.
Turning to `ClC(Cl)C(Cl)Cl`, the “48 h LC50 (-log10 mol/L)” value in the data set on Daphnia magna turned out to be 3.46. Also, the “96 h LC50 (-log10 mol/L)” value with Pimephales promelas stood at 3.92.
Regarding `CCN(CC)C(=O)c1cccc(C)c1`, the “48 h LC50 (-log10 mol/L)” value with Daphnia magna came out at 3.08. In addition, the “96 h LC50 (-log10 mol/L)” value with Pimephales promelas worked out at 3.24.
As for `ClC1=C(Cl)[C@]2(Cl)[C@@H]3[C@@H]4C[C@@H]([C@H]5O[C@@H]45)[C@@H]3[C@@]1(Cl)C2(Cl)Cl`, the “48 h LC50 (-log10 mol/L)” value in the data set on Daphnia magna was 6.51. The “96 h LC50 (-log10 mol/L)” value with Pimephales promelas stood at 7.21.
In the case of `Nc1cc(Cl)ccc1Cl`, the “48 h LC50 (-log10 mol/L)” value in the data set on Daphnia magna is 4.74. Besides, the “48 h IGC50 (-log10 mol/L)” value with Tetrahymena pyriformis worked out at 3.58.
For `NC(N)=S` the same measures were 3.88 and 1.68.
On to `ClC(Cl)C(Cl)(Cl)Cl`, for which, in the data set with Daphnia magna, the “48 h LC50 (-log10 mol/L)” value came out at 4.19. Further, in the data set with Pimephales promelas, the “96 h LC50 (-log10 mol/L)” value amounted to 4.43.
`O=Cc1ccccc1`: the “48 h LC50 (-log10 mol/L)” value in the data set on Daphnia magna came out at 3.98. Further, the “48 h IGC50 (-log10 mol/L)” value with Tetrahymena pyriformis amounted to 2.8.
Regarding `Cc1c(Cl)cccc1[N+](=O)[O-]`, in the data set on Daphnia magna, the “48 h LC50 (-log10 mol/L)” value worked out at 4.61. Further, the “48 h IGC50 (-log10 mol/L)” value in the data set on Tetrahymena pyriformis was determined as 3.68.
For `O=[N+]([O-])c1cccc(Cl)c1Cl` the same measures were 4.62 and 4.07.
Consider `CCCCN=C=S`, for which the “48 h LC50 (-log10 mol/L)” value in the data set on Daphnia magna came to 5.43. Besides, the “48 h IGC50 (-log10 mol/L)” value in the data set on Tetrahymena pyriformis is 4.72.
As for `S=c1[nH]c2ccccc2s1`, the “48 h LC50 (-log10 mol/L)” value in the data set on Daphnia magna came to 4.49. In the data set on Pimephales promelas, the “96 h LC50 (-log10 mol/L)” value is 4.18.
Regarding `COP(=S)(OC)Oc1ccc([N+](=O)[O-])cc1`, the “48 h LC50 (-log10 mol/L)” value in the data set on Daphnia magna was determined as 7.34. Besides, in the data set on Pimephales promelas, the “96 h LC50 (-log10 mol/L)” value is 4.51.
Regarding `O=[N+]([O-])OCC(CO[N+](=O)[O-])O[N+](=O)[O-]`, in the data set with Daphnia magna, the “48 h LC50 (-log10 mol/L)” value worked out at 3.85. In addition, in the data set with Pimephales promelas, the “96 h LC50 (-log10 mol/L)” value turned out to be 4.92.
Turning to `O=C(N=C=S)c1ccccc1`, the “48 h LC50 (-log10 mol/L)” value in the data set with Daphnia magna was 4.93. Further, in the data set with Tetrahymena pyriformis, the “48 h IGC50 (-log10 mol/L)” value came to 3.1.
As for `CC(=O)Nc1ccc(O)cc1`, the “48 h LC50 (-log10 mol/L)” value with Daphnia magna amounted to 4.22. For the same compound, in the data set with Tetrahymena pyriformis, the “48 h IGC50 (-log10 mol/L)” value stood at 2.18.
As for `CCOC(=O)CC`, the “48 h LC50 (-log10 mol/L)” value in the data set with Daphnia magna came out at 2.83. In the data set on Tetrahymena pyriformis, the “48 h IGC50 (-log10 mol/L)” value came out at 2.06.
Regarding `CN(C)c1ccccc1`, in the data set with Daphnia magna, the “48 h LC50 (-log10 mol/L)” value came out at 4.38. Moreover, in the data set on Tetrahymena pyriformis, the “48 h IGC50 (-log10 mol/L)” value is 3.28.
For `O=P(Oc1ccccc1)(Oc1ccccc1)Oc1ccccc1` the same measures were 5.51 and 4.81.
On to `Nc1ccc(Cl)cc1Cl`, for which the “48 h LC50 (-log10 mol/L)” value in the data set on Daphnia magna was found to be 5.43. Also, the “48 h IGC50 (-log10 mol/L)” value in the data set with Tetrahymena pyriformis is 3.56.
For `CC(C)c1ccccc1`, in that order: 3.77 and 3.69.
For `CCC(=O)O`, in that order: 3.17 and 2.49.
For `O=C(O)c1ccccc1O` the same measures were 3.07 and 2.49.
In the case of `O=[N+]([O-])c1cc(Cl)cc(Cl)c1`, the “48 h LC50 (-log10 mol/L)” value with Daphnia magna came out at 4.43. Also, the “48 h IGC50 (-log10 mol/L)” value with Tetrahymena pyriformis turned out to be 4.13.
For `Oc1c(Cl)c(Cl)cc(Cl)c1Cl`, in that order: 5.61 and 5.22.
For `c1ccncc1` the same measures were 1.81 and 1.68.
For `c1ccc2c(c1)oc1ccccc12` the same measures were 5 and 4.42.
